The source made the active and inactive calls. No cut-off for these calls is given here.
Tests used:
[1] = biological target: T1, Asparagine synthetase [glutamine-hydrolyzing] (Homo sapiens, UniProt P08243); assay: Inhibition of human recombinant ASNS expressed in Sf9 insect cells
T1 sequence (P08243 whole entry): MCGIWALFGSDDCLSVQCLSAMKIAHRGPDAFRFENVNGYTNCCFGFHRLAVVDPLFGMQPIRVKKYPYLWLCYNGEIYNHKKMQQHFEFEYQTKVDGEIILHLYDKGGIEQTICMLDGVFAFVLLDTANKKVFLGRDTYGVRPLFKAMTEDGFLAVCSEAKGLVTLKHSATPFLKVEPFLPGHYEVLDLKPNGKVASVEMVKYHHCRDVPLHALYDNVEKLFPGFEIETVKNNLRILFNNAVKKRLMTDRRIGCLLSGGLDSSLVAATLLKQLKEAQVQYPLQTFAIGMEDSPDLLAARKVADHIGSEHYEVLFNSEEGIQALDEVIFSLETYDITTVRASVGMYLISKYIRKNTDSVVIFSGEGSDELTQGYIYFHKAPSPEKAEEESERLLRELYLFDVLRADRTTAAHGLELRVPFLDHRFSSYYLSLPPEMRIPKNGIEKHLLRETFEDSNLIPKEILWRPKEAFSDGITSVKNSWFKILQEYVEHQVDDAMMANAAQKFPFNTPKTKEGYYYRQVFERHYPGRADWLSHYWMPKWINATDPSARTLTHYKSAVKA

[2] = biological target: T1, Asparagine synthetase [glutamine-hydrolyzing]; assay: Inhibition of human recombinant ASNS expressed in Sf9 insect cells assessed as overall inhibition constant
[3] = biological target: T2, Asparagine synthetase [glutamine-hydrolyzing] (Homo sapiens) (UniProt P08243); assay: Inhibition of human recombinant ASNS expressed in Sf9 insect cells assessed as inorganic phosphate production in ammonia-dependent asparagine synthesis using continuous assay
T2 sequence (whole entry): T1 sequence (P08243 whole entry)

[4] = biological target: T2, Asparagine synthetase [glutamine-hydrolyzing] (Homo sapiens); assay: Inhibition of human recombinant ASNS expressed in Sf9 insect cells assessed as inorganic phosphate production in glutamine-dependent asparagine synthesis using continuous assay

| Ki [1] [µM] | Ki [2] [µM] | Activity [3] | Activity [4] | Structure (SMILES) |
| --- | --- | --- | --- | --- |
| 20 | 10 | – | – | C[S+]([O-])(C[C@H](N)C(=O)O)=NP(=O)(O)OC[C@H]1O[C@@H](n2cnc3c(N)ncnc32)[C@H](O)[C@@H]1O (some centres undefined) |
| – | – | inactive | inactive | C[S+]([O-])(CC(N)C(=O)O)=NS(=O)(=O)NC[C@H]1O[C@@H](n2cnc3c(N)ncnc32)[C@H](O)[C@@H]1O (mixture of isomers) |
